Experimental data from patent US11332473B2, “Substituted pyrazolo[3,4-d]pyrimidines as Wee1 inhibitors” (NUVATION BIO INC., priority 2019, dated 2022).

How the values were obtained:
WEE1 kinase enzyme = WEE1 kinase enzyme (Homo sapiens (Human), UniProt P30291); assay: WEE1 IC50 determination, LanthaScreen Terbium Labeled TR-FRET kinase assay; type: biochemical; details: WEE1 enzyme 1 nM, ATP 10 μM
Experimental: IC50 values of compounds against WEE1 kinase enzyme were determined by LanthaScreen™ Terbium Labeled TR-FRET assay. Kinase assays were performed in 1X kinase buffer (#PV6135, Invitrogen, Life Technologies Grand Island, N.Y.) where total reaction volume was 10 μL in low-volume 384-well plates (#4511, Corning). Serially diluted compounds (3-fold) were incubated with WEE1 Enzyme (1 nM) (#PR7373A, Invitrogen, Life Technologies, Grand Island, N.Y.) for 10 min; a mixture of ATP (10 μM) (#A1852, Sigma, St. Louis, Mo.) and fluorescent-PolyGT substrate (200 nM) (#PV3610, Invitrogen, Life Technologies Grand Island, N.Y.) was added and incubated in dark at room temperature for 1 h. After 1 h, 10 μL stop solution containing Terbium labeled antibody (4 nM) (#PV3529, Invitrogen, Life Technologies Grand Island, N.Y.) and EDTA (#E5134, Sigma, St. Louis, Mo.) (20 mM) in TR-FRET dilution buffer (#PV3574, Invitrogen, Life Technologies Grand Island, N.Y.) was added. Readings were taken in a Synergy Neo Plate reader (BioTek, Winooski, Vt.) at single excitation of 340 nm and dual emission at 495 nm and 520 nm respectively.
The % activity of test samples was calculated as (Sample−Min)*100/(Max−Min). [Max: DMSO control, complete reaction with enzyme & DMSO and Min: No enzyme & DMSO].

A427 cells = assay: Cytotoxicity assay in A427 cell line (resazurin); type: cell-based; details: Homo sapiens, A-427; A427 lung epithelial cell line, 72 hr, inhibition of proliferation
Experimental: A427 (HTB-53; ATCC), a lung epithelial cell line, was seeded in medium (MEM, 41090101; Gibco) at a cell count of 1500 cells per 100 μL per well in a 96 well edge plate (167425; ThermoFisher). Cells were allowed to grow at 37° C. for 24 hr in 5% CO2 environment (culture conditions) in a Nuaire incubator (humidified). Serially diluted test compounds (100 μL) within the desired testing concentration ranges were added to the culture plate and the cells were further incubated in culture conditions for 72 hr. The experiment was terminated at the designated incubation time by replacing the medium with 100 μL of 1 mM of resazurin (R7017; Sigma) prepared in culture medium, and the plates were further incubated in culture conditions for 4-6 hr. Fluorescence was recorded using a multimodal plate reader (Biotek Synergy Neo) at an excitation wavelength of 535 nm and emission wavelength of 590 nm to obtain relative fluorescence units. Data were analysed as follows: the background fluorescence (blank containing only medium) value was subtracted from each reading and normalized with the vehicle control (DMSO treated cells) to obtain percent survival/proliferation. Percent survival was subtracted from 100 to get the percent inhibition of proliferation which was used to calculate IC50 values. Potency of compounds in other cell lines (such as A549, AsPc-1, Panc 10.05, A172, U-87MG) may be determined in an analogous manner.

PKMYT1 kinase = PKMYT1 kinase (Homo sapiens (Human), UniProt Q99640); assay: PKMYT1 IC50 determination, HotSpot Kinase Assay; type: biochemical; details: 10 μM ATP, 33P-ATP, Myelin Basic Protein substrate
Chain of PKMYT1 kinase (Q99640 whole entry): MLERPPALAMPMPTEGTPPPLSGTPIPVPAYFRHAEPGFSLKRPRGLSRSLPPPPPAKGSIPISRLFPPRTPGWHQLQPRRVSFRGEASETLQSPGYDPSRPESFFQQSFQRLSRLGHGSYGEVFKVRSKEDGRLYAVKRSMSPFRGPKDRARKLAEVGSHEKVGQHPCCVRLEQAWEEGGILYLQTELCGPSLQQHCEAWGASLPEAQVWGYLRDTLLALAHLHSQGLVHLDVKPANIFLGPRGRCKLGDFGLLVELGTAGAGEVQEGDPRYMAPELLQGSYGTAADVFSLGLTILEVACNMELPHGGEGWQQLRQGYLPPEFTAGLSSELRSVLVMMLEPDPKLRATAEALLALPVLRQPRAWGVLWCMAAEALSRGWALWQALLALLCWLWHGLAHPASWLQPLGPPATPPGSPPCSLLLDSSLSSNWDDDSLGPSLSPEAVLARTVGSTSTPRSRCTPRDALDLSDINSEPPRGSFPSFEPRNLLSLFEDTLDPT
Experimental: Inhibition of PKMYT1 kinase activity by test compounds was measured by the HotSpot Kinase Assay at Reaction Biology Corporation (Malvern, Pa.). Briefly, Myelin Basic Protein substrate was prepared in Reaction Buffer (20 mM Hepes (pH 7.5), 10 mM MgCl2, 1 mM EGTA, 0.01% Brij35, 0.02 mg/mL BSA, 0.1 mM Na3VO4, 2 mM DTT, 1% DMSO). PKMYT1 kinase was delivered into the substrate solution and gently mixed. Test compounds in 100% DMSO were added into the kinase reaction mixture by Acoustic technology (Echo550; nanoliter range) and incubated for 20 min at room temperature. ^33P-ATP was delivered into the reaction mixture to initiate the reaction. Reactions were carried out at 10 μM ATP. After a 2 hour incubation at room temperature, kinase activity was detected by P81 filter-binding method. […] A nonlinear regression model with a sigmoidal dose response and variable slope within GraphPad Prism (GraphPad Software, San Diego, Calif.) was used to calculate the IC50 value of individual test compounds.

Chain of WEE1 kinase enzyme (P30291 whole entry): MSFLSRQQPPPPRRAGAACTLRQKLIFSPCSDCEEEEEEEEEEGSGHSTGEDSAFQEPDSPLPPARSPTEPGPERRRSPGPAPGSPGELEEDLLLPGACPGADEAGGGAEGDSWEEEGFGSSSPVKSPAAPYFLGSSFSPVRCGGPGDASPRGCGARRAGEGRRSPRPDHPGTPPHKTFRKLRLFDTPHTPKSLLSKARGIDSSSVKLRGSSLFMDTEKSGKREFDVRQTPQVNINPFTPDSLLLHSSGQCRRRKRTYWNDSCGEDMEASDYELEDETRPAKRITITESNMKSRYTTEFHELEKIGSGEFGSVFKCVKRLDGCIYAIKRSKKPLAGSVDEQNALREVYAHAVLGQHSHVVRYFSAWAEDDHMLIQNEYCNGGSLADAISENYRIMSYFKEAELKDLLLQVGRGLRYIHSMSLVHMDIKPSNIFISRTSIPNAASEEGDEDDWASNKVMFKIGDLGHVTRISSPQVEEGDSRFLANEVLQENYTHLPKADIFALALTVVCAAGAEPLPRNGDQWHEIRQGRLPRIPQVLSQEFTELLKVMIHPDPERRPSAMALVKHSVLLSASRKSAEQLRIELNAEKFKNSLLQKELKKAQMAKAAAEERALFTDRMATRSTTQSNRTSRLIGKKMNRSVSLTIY

| Structure (SMILES) | IC50 (WEE1 kinase enzyme) | IC50 (A427 cells) | IC50 (PKMYT1 kinase) |
| --- | --- | --- | --- |
| CC(C)(F)c1nc(-n2c3nc(Nc4ccc5c(c4)CCNC5(C)C)ncc3c(=O)n2C2CC2)ccc1F [1.5, 2-cyclopropyl-6-((1,1-dimethyl-1,2,3,4-tetrahydroisoquinolin-6-yl)amino)-1-(5-fluoro-6-(2-fluoropropan-2-yl)pyridin-2-yl)-1,2-dihydro-3H-pyrazolo[3,4-d]pyrimidin-3-one] | 5 nM | 7600 nM | 5500 nM |
| N#CC1(c2cccc(-n3c4nc(Nc5ccc6c(c5)CNCC6)ncc4c(=O)n3CC(F)(F)F)n2)CC1 [1.32, 1-(6-(3-oxo-6-(1,2,3,4-tetrahydroisoquinolin-7-ylamino)-2-(2,2,2-trifluoroethyl)-2,3-dihydro-1H-pyrazolo[3,4-d]pyrimidin-1-yl)pyridin-2-yl)cyclopropanecarbonitrile] | 8 nM | 870 nM | 767 nM |
| CCn1c(=O)c2cnc(Nc3ccc4c(c3)CCNC4)nc2n1-c1cccc(C2(C#N)CC2)n1 [1.37, 1-(6-(2-ethyl-3-oxo-6-((1,2,3,4-tetrahydroisoquinolin-6-yl)amino)-2,3-dihydro-1H-pyrazolo[3,4-d]pyrimidin-1-yl)pyridin-2-yl)cyclopropane-1-carbonitrile] | 13 nM | 660 nM | 691 nM |
| CCn1c(=O)c2cnc(Nc3ccc4c(c3)CCNC4(C)C)nc2n1-c1cccc(C2(C#N)CC2)n1 [1.39, 1-(6-(6-(1,1-dimethyl-1,2,3,4-tetrahydroisoquinolin-6-ylamino)-2-ethyl-3-oxo-2,3-dihydro-1H-pyrazolo[3,4-d]pyrimidin-1-yl)pyridin-2-yl)cyclopropanecarbonitrile] | 1 nM | 510 nM |  |
| CCn1c(=O)c2cnc(Nc3ccc4c(c3)CNCC4(C)C)nc2n1-c1cccc(C2(C#N)CC2)n1 [1.40, 1-(6-(6-((4,4-dimethyl-1,2,3,4-tetrahydroisoquinolin-7-yl)amino)-2-ethyl-3-oxo-2,3-dihydro-1H-pyrazolo[3,4-d]pyrimidin-1-yl)pyridin-2-yl)cyclopropane-1-carbonitrile] | 4 nM |  | 121 nM |
| CCn1c(=O)c2cnc(Nc3ccc4c(c3)CCNC43CC3)nc2n1-c1cccc(C2(C#N)CC2)n1 [1.42, 1-(6-(6-(2′,3′-dihydro-1^1H-spiro[cyclopropane-1,4′-isoquinoline]-7′-ylamino)-2-ethyl-3-oxo-2,3-dihydro-1H-pyrazolo[3,4-d]pyrimidin-1-yl)pyridin-2-yl)cyclopropanecarbonitrile] | 1 nM | 255 nM |  |
| CC(C)n1c(=O)c2cnc(Nc3ccc4c(c3)CNCC4)nc2n1-c1cccc(C2(C#N)CC2)n1 [1.44, 1-(6-(2-isopropyl-3-oxo-6-((1,2,3,4-tetrahydroisoquinolin-7-yl)amino)-2,3-dihydro-1H-pyrazolo[3,4-d]pyrimidin-1-yl)pyridin-2-yl)cyclopropane-1-carbonitrile] | 3 nM | 892 nM | 1170 nM |
| CCn1c(=O)c2cnc(Nc3ccc4c(c3)CCNC4(C)C)nc2n1-c1ccnc(C2(C#N)CC2)c1 [1.63, 1-(4-(6-((1,1-dimethyl-1,2,3,4-tetrahydroisoquinolin-6-yl)amino)-2-ethyl-3-oxo-2,3-dihydro-1H-pyrazolo[3,4-d]pyrimidin-1-yl)pyridin-2-yl)cyclopropane-1-carbonitrile] | 18 nM | 17200 nM |  |
| CC(C)n1c(=O)c2cnc(Nc3ccc4c(c3)CCNC4)nc2n1-c1ccnc(C2(C#N)CC2)c1 [1.67, 1-(4-(2-isopropyl-3-oxo-6-(1,2,3,4-tetrahydroisoquinolin-6-ylamino)-2,3-dihydro-1H-pyrazolo[3,4-d]pyrimidin-1-yl)pyridin-2-yl)cyclopropanecarbonitrile] | 15 nM | 2580 nM | 2900 nM |
| CCn1c(=O)c2cnc(Nc3ccc4c(c3)CNCC4)nc2n1-c1cccc(C2(CF)CC2)n1 [1.86, 2-ethyl-1-(6-(1-(fluoromethyl)cyclopropyl)pyridin-2-yl)-6-((1,2,3,4-tetrahydroisoquinolin-7-yl)amino)-1,2-dihydro-3H-pyrazolo[3,4-d]pyrimidin-3-one] | 2 nM | 685 nM | 4200 nM |
| CC(C)n1c(=O)c2cnc(Nc3ccc4c(c3)CCNC4)nc2n1-c1cccc(C2(CF)CC2)n1 [1.91, 1-(6-(1-(fluoromethyl)cyclopropyl)pyridin-2-yl)-2-isopropyl-6-((1,2,3,4-tetrahydroisoquinolin-6-yl)amino)-1,2-dihydro-3H-pyrazolo[3,4-d]pyrimidin-3-one] | 3 nM |  | 6920 nM |
| CC(C)n1c(=O)c2cnc(Nc3ccc4c(c3)CNCC4)nc2n1-c1ccc(F)c(C(C)(C)O)n1 [1.250, 1-(5-fluoro-6-(2-hydroxypropan-2-yl)pyridin-2-yl)-2-isopropyl-6-((1,2,3,4-tetrahydroisoquinolin-7-yl)amino)-1,2-dihydro-3H-pyrazolo[3,4-d]pyrimidin-3-one] | 8 nM |  | 13500 nM |
| CC(C)n1c(=O)c2cnc(Nc3ccc4c(c3)CCNC4(C)C)nc2n1-c1ccc(F)c(C(C)(C)O)n1 [1.251, 6-((1,1-dimethyl-1,2,3,4-tetrahydroisoquinolin-6-yl)amino)-1-(5-fluoro-6-(2-hydroxypropan-2-yl)pyridin-2-yl)-2-isopropyl-1,2-dihydro-3H-pyrazolo[3,4-d]pyrimidin-3-one] | 7 nM | 12400 nM | 6690 nM |
| CC(C)n1c(=O)c2cnc(Nc3ccc4c(c3)CNCC43CC3)nc2n1-c1ccc(F)c(C(C)(C)O)n1 [1.254, 6-((2′,3′-dihydro-1′H-spiro[cyclopropane-1,4′-isoquinolin]-7′-yl)amino)-1-(5-fluoro-6-(2-hydroxypropan-2-yl)pyridin-2-yl)-2-isopropyl-1,2-dihydro-3H-pyrazolo[3,4-d]pyrimidin-3-one] | 140 nM |  | 3560 nM |
| CCn1c(=O)c2cnc(Nc3ccc4c(c3)CCNC4)nc2n1-c1ccc(F)c(C(C)(C)O)n1 [1.261, 2-ethyl-1-(5-fluoro-6-(2-hydroxypropan-2-yl)pyridin-2-yl)-6-((1,2,3,4-tetrahydroisoquinolin-6-yl)amino)-1,2-dihydro-3H-pyrazolo[3,4-d]pyrimidin-3-one] | 9 nM | 900 nM | 4540 nM |
| CCn1c(=O)c2cnc(Nc3ccc4c(c3)CNCC4)nc2n1-c1ccc(F)c(C(C)(C)O)n1 [1.262, 2-ethyl-1-(5-fluoro-6-(2-hydroxypropan-2-yl)pyridin-2-yl)-6-((1,2,3,4-tetrahydroisoquinolin-7-yl)amino)-1,2-dihydro-3H-pyrazolo[3,4-d]pyrimidin-3-one] | 8 nM |  | 16800 nM |
| CC(C)n1c(=O)c2cnc(Nc3ccc4c(c3)CNCC4)nc2n1-c1nc(C(C)(C)C#N)ccc1F [1.322, 2-(5-fluoro-6-(2-isopropyl-3-oxo-6-(1,2,3,4-tetrahydroisoquinolin-7-ylamino)-2,3-dihydro-1H-pyrazolo[3,4-d]pyrimidin-1-yl)pyridin-2-yl)-2-methylpropanenitrile] |  |  | 7490 nM |
| CCn1c(=O)c2cnc(Nc3ccc4c(c3)CCNC4(C)C)nc2n1-c1nc(C(C)(C)C#N)ccc1F [1.335, 2-(6-(6-(1,1-dimethyl-1,2,3,4-tetrahydroisoquinolin-6-ylamino)-2-ethyl-3-oxo-2,3-dihydro-1H-pyrazolo[3,4-d]pyrimidin-1-yl)-5-fluoropyridin-2-yl)-2-methylpropanenitrile] | 5 nM | 4730 nM |  |
